{"source": "patent US7141661B2", "about": "“Non-steroidal anti-inflammatory drug activated gene with anti-tumorigenic properties” (The United States of America as represented by the …, priority 2000, dated 2006)", "assay_type_in_all_cases": "cell-based, human", "key": {"[1]": {"system": "NAG-1", "experiment": "Western blot analysis of secreted NAG-1 protein from HCT-116 cells", "conditions": "HCT-116, 100 μM INDO, 36 and 48 hr, no serum", "method": "The level of secreted NAG-1 was evaluated using Western blot analysis with anti-human-NAG-1 antibody (generously provided by Dr. Paralkar of Pfizer). HCT-116 cells were grown to 60–80% confluency in 10 cm plates followed by 48 hr treatment in the absence of serum with either NSAIDs or TGZ. The media were harvested and concentrated approximately 15-fold using Centriprep 10 concentrators (Amicon). Proteins (30 μg) were separated by 15% SDS-PAGE and transferred for 1 hr onto nitrocellulose membrane (Schleicher & Schuell). The blots were blocked for 1 hr with 5% skim milk in TBS/Tween 0.05%, and probed with anti-NAG-1 antibody (1 μg/ml in TBS-0.2%-Tween20) at […] overnight. After washing, the blots were treated with horseradish peroxidase-conjugated secondary antibody for 1 hr and washed several times. The signal was detected by enhanced chemiluminescence system (AMERSHAM) and autoradiography.\nHCT-116 cells were treated with 100 μM INDO in the absence of serum for various times. In FIG. 1B, left panel. 10 μg of total RNA was loaded in each lane. Northern blotting was performed using the NAG-1 probe and re-probed with β-actin probe. The hybridization signals were quantitated using Scion Image software (Scion). Levels of the 1.3 kb NAG-1 transcript were normalized to the levels of β-actin transcripts and represented relative to 0 hr treatment. […] The signal was detected by ECL reagent (AMERSHAM)."}, "[2]": {"system": "HCT-116 cells", "experiment": "Apoptosis by FACS in HCT-116 cells stably transfected with vector, sense or antisense NAG-1", "conditions": "100 μM, 48 hr", "description": "(§1) HCT-116 cells were stably transfected with an expression vector containing the full-length NAG-1 coding region in the sense and antisense orientations. The sense cells expressed NAG-1 protein at a level that was 2.0–2.5 fold greater than the vector transfected cells, while the anti-sense cells expressed slightly lower NAG-1 levels compared to vector transfected cells. […] The full-length NAG-1 (sense strand and antisense strand) was cloned into the pCDNA3.1 expression vector and transfected into HCT-116 cells. Each cell was grown under G418 (500 μg/ml) for 2 weeks and treated with either vehicle or INDO (100 μM). After growing for 48 hr, the media was harvested, concentrated, and subjected to Western analysis. Thirty μg of total protein was loaded in each lane, and the arrow indicates the NAG-1 protein band.\nDespite repeated attempts, construction of NAG-1 highly expressing cells which may be linked to high rates of apoptosis were not generated (data not shown). […] This could be due to effects on cell proliferation and/or an increase in cell death. […] The stably transfected cells were then incubated with 100 μM indomethacin for 48 hr and the percentage of cells in apoptosis determined by FACS analysis as described in Example 1. The data shown in FIG. 6 represent mean±S.D. Indomethacin enhanced the percentage of apoptotic cells by approximately 2 fold in the vector-HCT-116 and sense cells."}, "[3]": {"system": "NAG-1", "experiment": "Western analysis of NAG-1 in stably transfected HCT-116 cells", "conditions": "antisense HCT-116 cells, 100 μM, 48 hr", "description": "as §1"}}, "data": [{"smiles": "COc1ccc2c(c1)c(CC(=O)O)c(C)n2C(=O)c1ccc(Cl)cc1", "note": "[Indomethacin]", "values": [{"measurement": "NAG-1 protein expression", "setting": "[1]", "result": "marked increase"}, {"measurement": "Stimulation of apoptosis", "setting": "[2]; antisense HCT-116 cells", "result": "did not stimulate apoptosis"}, {"measurement": "Enhancement of percentage of apoptotic cells", "setting": "[2]; sense NAG-1 HCT-116 cells", "result": "approximately 2 fold"}, {"measurement": "Enhancement of percentage of apoptotic cells", "setting": "[2]; vector-HCT-116 cells", "result": "approximately 2 fold"}, {"measurement": "Expression of NAG-1", "setting": "[3]", "result": "did not stimulate apoptosis or increase the expression of NAG-1"}]}]}
